The target of data set [1] is T1, Protein deacetylase HDAC6 (Homo sapiens, UniProt Q9UBN7).
T1 sequence (Q9UBN7 whole entry): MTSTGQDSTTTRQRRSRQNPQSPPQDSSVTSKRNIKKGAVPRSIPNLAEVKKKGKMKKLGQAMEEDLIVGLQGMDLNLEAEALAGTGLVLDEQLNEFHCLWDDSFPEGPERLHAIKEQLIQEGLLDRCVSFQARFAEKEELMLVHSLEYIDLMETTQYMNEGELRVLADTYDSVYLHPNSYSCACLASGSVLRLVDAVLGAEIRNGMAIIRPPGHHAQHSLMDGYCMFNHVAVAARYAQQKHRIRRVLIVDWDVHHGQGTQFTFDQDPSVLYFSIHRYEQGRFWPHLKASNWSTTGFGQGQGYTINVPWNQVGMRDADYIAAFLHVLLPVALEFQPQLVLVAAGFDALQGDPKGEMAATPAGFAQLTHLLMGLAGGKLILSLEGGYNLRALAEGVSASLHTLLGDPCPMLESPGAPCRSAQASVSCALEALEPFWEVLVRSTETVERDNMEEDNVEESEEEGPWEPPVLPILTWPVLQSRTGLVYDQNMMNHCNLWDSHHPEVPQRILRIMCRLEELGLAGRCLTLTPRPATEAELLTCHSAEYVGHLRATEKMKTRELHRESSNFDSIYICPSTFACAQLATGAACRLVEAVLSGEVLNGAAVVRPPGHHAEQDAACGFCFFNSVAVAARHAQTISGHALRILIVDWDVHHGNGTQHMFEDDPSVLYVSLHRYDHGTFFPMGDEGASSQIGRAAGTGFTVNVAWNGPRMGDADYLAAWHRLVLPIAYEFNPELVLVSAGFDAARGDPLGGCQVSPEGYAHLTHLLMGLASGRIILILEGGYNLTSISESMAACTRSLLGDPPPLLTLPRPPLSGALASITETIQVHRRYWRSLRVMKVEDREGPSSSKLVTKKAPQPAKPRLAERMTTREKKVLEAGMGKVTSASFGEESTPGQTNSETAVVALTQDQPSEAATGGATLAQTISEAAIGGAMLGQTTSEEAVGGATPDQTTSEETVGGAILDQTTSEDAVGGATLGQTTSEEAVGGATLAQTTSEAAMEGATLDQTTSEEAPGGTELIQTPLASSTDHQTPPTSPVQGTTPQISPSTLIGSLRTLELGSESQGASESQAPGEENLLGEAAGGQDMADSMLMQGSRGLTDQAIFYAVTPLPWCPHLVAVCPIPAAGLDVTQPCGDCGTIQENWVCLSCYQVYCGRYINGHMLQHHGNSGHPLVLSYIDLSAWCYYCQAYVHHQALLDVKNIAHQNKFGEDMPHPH
The experiment in a line: Inhibition of HDAC6 in human HeLa nuclear extracts incubated for 30 mins by fluorescence based assay. The data set is classed as cell-free.

The target of another data set is Histone deacetylase 2 (Homo sapiens, UniProt Q92769). The experiment in a line: Inhibition of HDAC2 in human HeLa nuclear extracts incubated for 30 mins by fluorescence based assay. The data set is classed as cell-based.
Another data set has as its system MDA-MB-231. The experiment in a line: Cytotoxicity against human MDA-MB-231 cells incubated for 72 hrs by MTT assay. It counts as functional, cell-based. As to conditions: MDA-MB-231, 72 h. In general terms: Formazan colour is commonly taken as a measure of viable cells.
The subject of a further data set is U-251. Kind of data set: Cytotoxicity against human U-251 cells incubated for 72 hrs by MTT assay. As to conditions: U-251, 72 h.
The test system of another data set is A549. The experiment in a line: Cytotoxicity against human A549 cells incubated for 72 hrs by MTT assay. As to conditions: A549, 72 h.
Another data set addresses T2, Histone deacetylase 7 (Homo sapiens, UniProt Q8WUI4).
T2 sequence (Q8WUI4 whole entry): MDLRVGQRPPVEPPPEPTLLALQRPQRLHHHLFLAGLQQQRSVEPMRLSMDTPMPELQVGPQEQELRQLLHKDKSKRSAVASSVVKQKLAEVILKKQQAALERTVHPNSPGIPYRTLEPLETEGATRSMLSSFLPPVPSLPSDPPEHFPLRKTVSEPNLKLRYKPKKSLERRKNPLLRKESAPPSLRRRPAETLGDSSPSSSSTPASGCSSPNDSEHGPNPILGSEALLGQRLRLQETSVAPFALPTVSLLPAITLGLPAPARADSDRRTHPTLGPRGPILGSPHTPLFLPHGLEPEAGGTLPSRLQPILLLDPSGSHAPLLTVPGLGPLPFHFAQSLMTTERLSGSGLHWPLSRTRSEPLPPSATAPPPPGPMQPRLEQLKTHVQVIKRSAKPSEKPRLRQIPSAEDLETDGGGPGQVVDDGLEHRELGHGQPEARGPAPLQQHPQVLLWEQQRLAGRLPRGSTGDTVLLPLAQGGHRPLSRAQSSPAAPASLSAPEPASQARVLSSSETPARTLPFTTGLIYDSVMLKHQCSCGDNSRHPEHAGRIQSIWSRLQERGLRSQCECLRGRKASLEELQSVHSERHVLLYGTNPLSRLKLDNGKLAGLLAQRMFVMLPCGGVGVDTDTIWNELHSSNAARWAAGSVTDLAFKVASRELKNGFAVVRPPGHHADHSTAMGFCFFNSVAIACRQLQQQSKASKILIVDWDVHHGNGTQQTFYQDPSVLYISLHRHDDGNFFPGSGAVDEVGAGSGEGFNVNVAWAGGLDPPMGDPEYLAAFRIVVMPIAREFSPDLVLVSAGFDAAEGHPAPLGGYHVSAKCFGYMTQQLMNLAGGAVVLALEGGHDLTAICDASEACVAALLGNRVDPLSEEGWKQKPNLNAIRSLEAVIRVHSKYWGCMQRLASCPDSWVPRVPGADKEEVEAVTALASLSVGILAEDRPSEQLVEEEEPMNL
Kind of data set: Inhibition of HDAC7 in human HeLa nuclear extracts incubated for 30 mins by fluorescence based assay. It counts as cell-free.

The next data set addresses Histone deacetylase 1 (Homo sapiens, UniProt Q13547). The experiment in a line: Inhibition of HDAC1 in human HeLa nuclear extracts incubated for 30 mins by fluorescence based assay. The data set is classed as cell-free.
Data set [2] concerns PC-3. Kind of data set: Cytotoxicity against human PC-3 cells incubated for 72 hrs by MTT assay. The settings on record: PC-3, 72 h.
The next data set concerns MCF7. The experiment in a line: Cytotoxicity against human MCF7 cells incubated for 72 hrs by MTT assay. The settings on record: MCF7, 72 h.
Data set [3] in a line: Toxicity in BALB/c nude mouse xenografted with human PC-3 cells assessed as mortality at 5 mg/kg, iv administered every 2 days and measured after 3 weeks. The data set is classed as organism-based. The settings on record: in vivo, 504 h.
Data set [4] deals with PC-3. Kind of data set: Antitumor activity against human PC-3 cells xenografted in BALB/c nude mouse assessed as tumor growth inhibition at 5 mg/kg, iv administered every 2 days and measured after 3 weeks. As to conditions: PC-3, 504 h, read-out: TGI. It counts as functional. In general terms: In xenograft studies the graft and the host belong to different species.
Data set [5] is described as follows: Toxicity in BALB/c nude mouse xenografted with human PC-3 cells assessed as body weight loss at 5 mg/kg, iv administered every 2 days and measured after 3 weeks. As to conditions: in vivo, 504 h. It counts as organism-based.

The structures appear in SMILES notation.

Histone deacetylase 2, sequence (Q92769 whole entry): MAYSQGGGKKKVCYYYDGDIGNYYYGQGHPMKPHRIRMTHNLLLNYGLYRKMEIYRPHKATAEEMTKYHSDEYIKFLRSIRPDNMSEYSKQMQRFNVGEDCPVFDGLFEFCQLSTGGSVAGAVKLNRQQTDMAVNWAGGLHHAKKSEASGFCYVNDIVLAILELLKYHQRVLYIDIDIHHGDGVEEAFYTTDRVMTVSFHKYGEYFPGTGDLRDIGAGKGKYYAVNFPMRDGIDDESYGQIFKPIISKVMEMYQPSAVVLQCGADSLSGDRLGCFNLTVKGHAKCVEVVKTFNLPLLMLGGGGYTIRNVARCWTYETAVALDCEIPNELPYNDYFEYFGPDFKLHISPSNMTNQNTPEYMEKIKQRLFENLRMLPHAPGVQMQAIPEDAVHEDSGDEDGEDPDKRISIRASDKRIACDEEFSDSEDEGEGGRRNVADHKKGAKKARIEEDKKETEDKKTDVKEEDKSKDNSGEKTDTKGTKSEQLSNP
Histone deacetylase 1, sequence (Q13547 whole entry): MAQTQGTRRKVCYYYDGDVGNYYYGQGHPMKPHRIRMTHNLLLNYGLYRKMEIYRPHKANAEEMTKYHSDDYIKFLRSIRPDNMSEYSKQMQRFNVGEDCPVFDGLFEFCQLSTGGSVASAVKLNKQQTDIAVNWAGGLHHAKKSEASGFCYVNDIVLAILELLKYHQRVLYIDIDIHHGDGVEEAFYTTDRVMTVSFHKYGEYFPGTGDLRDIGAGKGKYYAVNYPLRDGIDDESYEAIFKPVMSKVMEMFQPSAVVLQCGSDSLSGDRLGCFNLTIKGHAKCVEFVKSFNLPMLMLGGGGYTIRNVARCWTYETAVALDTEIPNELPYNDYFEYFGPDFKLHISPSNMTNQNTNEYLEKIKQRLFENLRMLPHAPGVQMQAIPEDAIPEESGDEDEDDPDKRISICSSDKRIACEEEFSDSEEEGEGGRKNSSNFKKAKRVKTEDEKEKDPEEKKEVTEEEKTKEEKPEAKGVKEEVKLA

In the case of `COc1ccc(/C=C/C(=O)c2ccc(Br)c3c2OC(C)(C)C=C3)cc1OCC(=O)NO`, the IC50 in data set [1] is 1210 nM; on Histone deacetylase 2 it was 830 nM; in the data set on MDA-MB-231 it was 470 nM; with U-251, 490 nM; with A549 it was 1310 nM; against Histone deacetylase 7, 5.42 µM. Besides, the half-inhibitory concentration (IC50) amounted to 580 nM against Histone deacetylase 1, 720 nM in the data set on PC-3 [2] and 1820 nM with MCF7.
For the compound `COc1ccc(/C=C/C(=O)c2ccc(Br)c3c2OC(C)(C)C=C3)cc1NCC(=O)NO`, the 50% inhibitory concentration (IC50) in data set [1] was 3350 nM; on Histone deacetylase 2 it was 1430 nM; with MDA-MB-231, 160 nM; with U-251, 140 nM; with A549, 800 nM; on Histone deacetylase 7, 8.3 µM. Further, the IC50 against Histone deacetylase 1 was determined as 870 nM; in the data set on PC-3 [2], 32 nM; in the data set with MCF7 it was 190 nM.
For `CC(=O)O[C@H]1C(=O)[C@@]2(C)[C@H]([C@H](OC(=O)c3ccccc3)[C@]3(O)C[C@H](OC(=O)[C@H](O)[C@@H](NC(=O)c4ccccc4)c4ccccc4)C(C)=C1C3(C)C)[C@]1(OC(C)=O)CO[C@@H]1C[C@@H]2O` [PACLITAXEL], the Activity entry in [3] and in data set [5] was “Toxic” throughout. The inhibition in vivo at 5 mg/kg in the data set with PC-3 [4] amounted to 91.3%.

The term IC50 denotes the concentration at which inhibition is half-maximal. Read a low IC50 as inhibition by little substance.
